Data taken from US20220002551A1, “A NOVEL CLASS OF PIGMENTS IN ASPERGILLUS” (DANMARKS TEKNISKE UNIVERSITET, priority 2019, published 2022).

Assay: Color intensity E1% of cavernamine-L powder and its formulation
Type: physicochemical
Protocol: The dilution mixture was adjusted to pH 5 with Sodium Hydroxide 2 M. The cavernamine-L powder was added to the dilution mixture in a concentration of 0.5 g/L and mixed for 5 minutes. The colored solution was then frozen prior to lyophilzation. Diluted red powder was recovered and the color intensity of the formulated cavernamine-L was detected to be E1% (at 492 nm) of 2.2, compared to E1% (at 492 nm) of 220 of original pure cavernamine-L powder.

Question: With `C/C=C\C1=CC2=CC3=C(C(=O)C(C)CC)C(=O)OC3(C)C(=O)C2=CN1C(CC(C)C)C(=O)O` (stereo not drawn) [cis-cavernamine-L] as the compound, how does the “color intensity E1% (at 492 nm)” value read?
Answer: 220
